From ChEMBL document CHEMBL5724914, “Linking interpersonal differences in gut microbiota composition and drug biotransformation activity” (2024) come the findings set out here.

Series [1] in a line: The drug is tested on Z-007 corresponding to rat gut metagenome with ENA study accession number: PRJEB37062 and ENA sample accession number: ERS12561807 for biotransformation under anaerobic condition. The drug concentrations were measured over 9 timepoints collected between 0 and 24 hours of incubation by liquid-chromatography-coupled mass spectrometry (LC–MS). The conditions noted are these: 2 µM.

Series [2] in a line: The drug is tested on WLS-010 corresponding to human gut metagenome with ENA study accession number: PRJEB37062 and ENA sample accession number: ERS12561743 for biotransformation under anaerobic condition. The drug concentrations were measured over 9 timepoints collected between 0 and 24 hours of incubation by liquid-chromatography-coupled mass spectrometry (LC–MS). The conditions noted are these: 2 µM.

The nature of series [3]: The drug is tested on Z-014 corresponding to rat gut metagenome with ENA study accession number: PRJEB37062 and ENA sample accession number: ERS12561814 for biotransformation under anaerobic condition. The drug concentrations were measured over 9 timepoints collected between 0 and 24 hours of incubation by liquid-chromatography-coupled mass spectrometry (LC–MS). The conditions noted are these: 2 µM.

Series [4] is described as follows: The drug is tested on Z-026 corresponding to metagenome with ENA study accession number: PRJEB37062 and ENA sample accession number: ERS12561825 for biotransformation under anaerobic condition. The drug concentrations were measured over 9 timepoints collected between 0 and 24 hours of incubation by liquid-chromatography-coupled mass spectrometry (LC–MS). The note with it: 2 µM.

Series [5] in a line: The drug is tested on WLS-052 corresponding to human gut metagenome with ENA study accession number: PRJEB37062 and ENA sample accession number: ERS12561747 for biotransformation under anaerobic condition. The drug concentrations were measured over 9 timepoints collected between 0 and 24 hours of incubation by liquid-chromatography-coupled mass spectrometry (LC–MS). The conditions noted are these: 2 µM.

The conditions of series [6]: human gut metagenome, 24 h, 2 µM.
For series [7] the following is noted: human gut metagenome, 24 h, 2 µM. The source holds these as a separate data set.
A short description of series [8]: The drug is tested on WLS-086 corresponding to human gut metagenome with ENA study accession number: PRJEB37062 and ENA sample accession number: ERS12561752 for biotransformation under anaerobic condition. The drug concentrations were measured over 9 timepoints collected between 0 and 24 hours of incubation by liquid-chromatography-coupled mass spectrometry (LC–MS). The conditions noted are these: 2 µM.

The conditions of series [9]: human gut metagenome, 24 h, 2 µM. The source holds these as a separate data set.
For series [10] the following is noted: human gut metagenome, 24 h, 2 µM. The source holds these as a separate data set.
For series [11] the following is noted: human gut metagenome, 24 h, 2 µM. This is another data set of the same source.
For series [12] the following is noted: human gut metagenome, 24 h, 2 µM. The source holds these as a separate data set.
A short description of series [13]: The drug is tested on WLS-077 corresponding to human gut metagenome with ENA study accession number: PRJEB37062 and ENA sample accession number: ERS12561750 for biotransformation under anaerobic condition. The drug concentrations were measured over 9 timepoints collected between 0 and 24 hours of incubation by liquid-chromatography-coupled mass spectrometry (LC–MS). The conditions noted are these: 2 µM.

The conditions of series [14]: human gut metagenome, 24 h, 2 µM. The source holds these as a separate data set.
For series [15] the following is noted: human gut metagenome, 24 h, 2 µM. This is another data set of the same source.
For series [16] the following is noted: human gut metagenome, 24 h, 2 µM. This is another data set of the same source.
For series [17] the following is noted: human gut metagenome, 24 h, 2 µM. This is another data set of the same source.
The conditions of series [18]: human gut metagenome, 24 h, 2 µM. This is another data set of the same source.
Series [19] is described as follows: The drug is tested on WLS-370 corresponding to human gut metagenome with ENA study accession number: PRJEB37062 and ENA sample accession number: ERS12561793 for biotransformation under anaerobic condition. The drug concentrations were measured over 9 timepoints collected between 0 and 24 hours of incubation by liquid-chromatography-coupled mass spectrometry (LC–MS). The note with it: 2 µM.

Series [20] in a line: The drug is tested on Z-001 corresponding to mouse gut metagenome with ENA study accession number: PRJEB37062 and ENA sample accession number: ERS12561801 for biotransformation under anaerobic condition. The drug concentrations were measured over 9 timepoints collected between 0 and 24 hours of incubation by liquid-chromatography-coupled mass spectrometry (LC–MS). The conditions noted are these: 2 µM.
Further: call rule not given here.

For `CC#C[C@]1(O)CC[C@H]2[C@@H]3CCC4=CC(=O)CCC4=C3[C@@H](c3ccc(N(C)C)cc3)C[C@@]21C` [MIFEPRISTONE], the “Bacterial Biotransformation” value in series [1] was “Compound NOT metabolized”; in series [2], “Compound metabolized”; in [3] it was “Compound NOT metabolized”; in [4] it was “Compound NOT metabolized”; in series [5], “Compound metabolized”; in series [6], “Compound metabolized”. For the same compound, the “Bacterial Biotransformation” value was “Compound NOT metabolized” in [7]; “Compound metabolized” in series [8]; “Compound metabolized” in series [9]; “Compound NOT metabolized” in series [10]; “Compound NOT metabolized” in [11]; “Compound NOT metabolized” in series [12]. In addition, the “Bacterial Biotransformation” value was “Compound NOT metabolized” in series [13]; “Compound NOT metabolized” in [14]; “Compound metabolized” in [15]; “Compound NOT metabolized” in [16]; “Compound metabolized” in series [17]; “Compound NOT metabolized” in [18]. In addition, the “Bacterial Biotransformation” value in series [19] and in [20] was “Compound NOT metabolized” in each case.
Regarding `CC(C)(C)NCC(O)COc1cccc2c1CC(O)C(O)C2` (stereo not given) [NADOLOL], the “Bacterial Biotransformation” value in series [1] is on record as “Compound NOT metabolized”; in series [2] it was “Compound NOT metabolized”; in [3], “Compound NOT metabolized”; in [4], “Compound NOT metabolized”; in series [5], “Compound NOT metabolized”; in series [6], “Compound metabolized”. Besides, the “Bacterial Biotransformation” value in series [7] is “Compound NOT metabolized”; in [8], “Compound metabolized”; in [9], “Compound metabolized”; in series [10] it was “Compound NOT metabolized”; in series [11], “Compound NOT metabolized”; in [12], “Compound metabolized”. Besides, the “Bacterial Biotransformation” value in [13] is “Compound metabolized”; in [14] it was “Compound metabolized”; in series [15] it was “Compound metabolized”; in [16] it was “Compound NOT metabolized”; in series [17], “Compound NOT metabolized”; in series [18], “Compound NOT metabolized”. Moreover, the “Bacterial Biotransformation” value in series [19] is “Compound NOT metabolized”; in series [20] it was “Compound metabolized”.
Consider `CC(C)[C@H]1CC[C@H](C(=O)N[C@H](Cc2ccccc2)C(=O)O)CC1` [NATEGLINIDE], for which the “Bacterial Biotransformation” value was “Compound NOT metabolized” in series [1]; “Compound metabolized” in [2]; “Compound NOT metabolized” in [3]; “Compound NOT metabolized” in series [4]; “Compound metabolized” in [5]; “Compound metabolized” in series [6]. Also, the “Bacterial Biotransformation” value is “Compound metabolized” in series [7]; “Compound metabolized” in series [8]; “Compound metabolized” in series [9]; “Compound NOT metabolized” in series [10]; “Compound metabolized” in [11]; “Compound metabolized” in [12]. The “Bacterial Biotransformation” value in series [13], in series [14], in [15], in series [16], in [17] and in series [18] was “Compound metabolized” throughout. The entries for the “Bacterial Biotransformation” value in [19] and in [20] were “Compound metabolized” and “Compound NOT metabolized”, respectively.
Consider `CN(C)C(=O)Oc1cccc([N+](C)(C)C)c1.[Br-]` [NEOSTIGMINE BROMIDE], for which the “Bacterial Biotransformation” value in series [1], in series [2], in series [3], in series [4], in [5] and in series [6] was “Compound NOT metabolized” throughout. Moreover, the “Bacterial Biotransformation” value in [7], in series [8], in series [9], in [10], in [11] and in series [12] was “Compound NOT metabolized” each time. The “Bacterial Biotransformation” value in series [13], in [14], in [15], in series [16], in [17] and in [18] was “Compound NOT metabolized” throughout. Also, the “Bacterial Biotransformation” value in [19] is on record as “Compound NOT metabolized”; in [20], “Compound metabolized”.
For the compound `Cc1ccccc1C(OCCN(C)C)c1ccccc1.O=C(O)CC(O)(CC(=O)O)C(=O)O` (stereo not given) [ORPHENADRINE CITRATE], the “Bacterial Biotransformation” value is reported as “Compound NOT metabolized” in series [1]; “Compound metabolized” in series [2]; “Compound NOT metabolized” in [3]; “Compound NOT metabolized” in series [4]; “Compound NOT metabolized” in series [5]; “Compound metabolized” in series [6]. Further, the “Bacterial Biotransformation” value in [7] is given as “Compound NOT metabolized”; in series [8], “Compound NOT metabolized”; in [9], “Compound NOT metabolized”; in [10], “Compound NOT metabolized”; in [11], “Compound metabolized”; in [12] it was “Compound NOT metabolized”. Moreover, the “Bacterial Biotransformation” value in [13] was “Compound NOT metabolized”; in series [14], “Compound NOT metabolized”; in series [15], “Compound NOT metabolized”; in series [16], “Compound NOT metabolized”; in series [17] it was “Compound NOT metabolized”; in series [18], “Compound metabolized”. The “Bacterial Biotransformation” value in [19] is “Compound NOT metabolized”; in series [20], “Compound metabolized”.
With `COc1ccc(Cc2nccc3cc(OC)c(OC)cc23)cc1OC` [PAPAVERINE], the “Bacterial Biotransformation” value in series [1] is given as “Compound NOT metabolized”; in [2], “Compound metabolized”; in series [3], “Compound NOT metabolized”; in series [4], “Compound NOT metabolized”; in series [5] it was “Compound metabolized”; in series [6], “Compound metabolized”. In addition, the “Bacterial Biotransformation” value in [7] is recorded as “Compound NOT metabolized”; in series [8], “Compound metabolized”; in series [9] it was “Compound metabolized”; in series [10], “Compound NOT metabolized”; in [11] it was “Compound NOT metabolized”; in [12], “Compound metabolized”. In addition, the “Bacterial Biotransformation” value is reported as “Compound NOT metabolized” in [13]; “Compound metabolized” in [14]; “Compound metabolized” in [15]; “Compound metabolized” in series [16]; “Compound metabolized” in [17]; “Compound metabolized” in series [18]. Besides, the “Bacterial Biotransformation” value in series [19] and in series [20] was “Compound metabolized” throughout.
